13 compounds from ChEMBL document CHEMBL1201862, “PubChem BioAssay data set” (2004) can be followed below.

Each structure is given as a SMILES string.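 Test compounds were applied to cells in 96-well plates for 48 hours at 5 doses. At the GI50, growth is halved.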 Activity calls are given as the source filed them. Cut-off read from the data, not from the text of the source: active = GI50 up to about 1.1 µM and inactive = higher. Bounds are passed on as bounds.

Holding throughout (assay): NCI-60 cell line screen, 48 h
The test system of test [1] is SK-MEL-5.
Test [2] has as its system 786-0.
In test [3] the test system is SK-MEL-2.
Test [4] deals with KM-20L2.
Test [5] relates to SK-MEL-28.
For test [6], the system named is SR.
The test system of test [7] is UO-31.
Test [8] concerns OVCAR-8.
In test [9] the test system is K562.
Test [10] deals with HT-29.
In test [11] the test system is COLO 205.
The subject of test [12] is RPMI-8226.
Test [13] deals with CAKI-1.
In test [14] the test system is IGROV-1.
For test [15], the system named is LOX IMVI.
Test [16] concerns RXF 393.
Test [17] deals with MDA-MB-231.
Test [18] concerns T47D.
In test [19] the test system is PC-3.
In test [20] the test system is MDA-MB-435.

`O=C(NC(Cc1ccccc1)C(=O)CCl)OCc1ccccc1` (stereo not drawn): the GI50 in test [1] was 13.4 µM (inactive); in [2], 3.83 µM (inactive); in test [3], 10.3 µM (inactive); in [4], 7.69 µM (inactive); in test [5], 12.1 µM (inactive); in test [6], 6.24 µM (inactive). The GI50 in [7] was 12.9 µM (inactive); in test [8], 4.38 µM (inactive); in test [9] it was 3.2 µM (inactive); in test [10] it was 16.6 µM (inactive); in [11] it was 7.16 µM (inactive); in [12], 4.06 µM (inactive). For the same compound, the GI50 was 5.15 µM (inactive) in test [13], 13.2 µM (inactive) in [14] and 1.76 µM (inactive) in test [15].
On to `N#CCC(=O)N/N=C1/C(=O)N(c2cc(Cl)ccc2Cl)C(=O)C(=O)C1c1nc2ccccc2s1` (stereo not drawn), for which the GI50 is > 100 µM (inactive) in test [1]; > 100 µM (inactive) in test [2]; < 0.01 µM (active) in test [16]; 37.9 µM (inactive) in test [3]; > 100 µM (inactive) in test [4]; > 100 µM (inactive) in test [5]. The GI50 was 36.9 µM (inactive) in [7]; 81.5 µM (inactive) in [8]; > 100 µM (inactive) in [9]; > 100 µM (inactive) in test [10]; > 100 µM (inactive) in [11]; 56.8 µM (inactive) in [12]. Also, the GI50 is 29.5 µM (inactive) in [13], > 100 µM (inactive) in [14] and 64 µM (inactive) in test [15].
For the compound `CCCCCOc1ccc(/C=N\c2ccc(-c3ccc(/N=C\c4ccc(OCCCCC)cc4)c(OC)c3)cc2OC)cc1`, the GI50 in [1] is > 100 µM (inactive); in test [16], > 100 µM (inactive); in [3], > 100 µM (inactive); in test [4], > 100 µM (inactive); in test [5], > 100 µM (inactive); in test [7], > 80.2 µM (inactive). Moreover, the GI50 in [8] was > 100 µM (inactive); in test [9] it was > 31.6 µM (inactive); in test [10], > 100 µM (inactive); in test [11] it was > 100 µM (inactive); in test [12] it was > 100 µM (inactive); in [14], > 100 µM (inactive). Moreover, in test [15], the GI50 was > 100 µM (inactive).
Turning to `CC[C@@]1(O)C[C@H](OC2CC(N(C)C)C(OC3CC(O)C(OC4CC(O)C(O)C(C)O4)C(C)O3)C(C)O2)c2c(cc3c(c2O)C(=O)c2c(O)ccc(O)c2C3=O)[C@H]1C(=O)OC` (stereo partly drawn), the GI50 in test [1] was 0.0194 µM (active); in test [16] it was 0.0356 µM (active); in test [3], 0.0398 µM (active); in test [4], 0.108 µM (active); in test [5] it was 0.0369 µM (active); in [7], 0.112 µM (active). The GI50 is 0.00474 µM (active) in test [8]; 0.0109 µM (active) in test [9]; 0.022 µM (active) in [10]; 0.0131 µM (active) in test [11]; 0.011 µM (active) in test [12]; 0.0082 µM (active) in [13]. The GI50 in test [14] is < 0.023 µM (active); in test [15] it was 0.163 µM (active).
For the compound `COC(OC)c1cc2c(cc1C=O)OCO2`, the GI50 in test [1] was 30.6 µM (inactive); in test [2], > 100 µM (inactive); in test [16] it was > 100 µM (inactive); in [3], > 100 µM (inactive); in [4], > 100 µM (inactive); in test [5], > 100 µM (inactive). The GI50 in test [6] was > 100 µM (inactive); in [7], 45.3 µM (inactive); in test [8] it was > 100 µM (inactive); in test [9], 64.9 µM (inactive); in test [10], > 100 µM (inactive); in [13] it was 34.1 µM (inactive). Besides, the GI50 in test [14] was > 100 µM (inactive).
Take `CNS(=O)(=O)NN(C)S(=O)(=O)c1ccc(C)cc1`: the GI50 in [1], in test [2], in [16], in test [3], in [4] and in test [5] was > 100 µM (inactive) throughout. In addition, the GI50 was > 100 µM (inactive) in test [6]; > 100 µM (inactive) in test [7]; > 100 µM (inactive) in [8]; > 10 µM (inactive) in test [9]; > 100 µM (inactive) in [10]; > 100 µM (inactive) in test [11]. Further, the GI50 in [12], in [13] and in test [14] was > 100 µM (inactive) throughout.
As to `Cc1ccc(C2CC(c3ccc([N+](=O)[O-])cc3)=Nc3ccccc3S2)cc1` (stereo not drawn), the GI50 in [1] was 17.1 µM (inactive); in test [2], 14.6 µM (inactive); in test [16], 12.1 µM (inactive); in test [3], 30.3 µM (inactive); in test [4] it was 34.3 µM (inactive); in [5], 29 µM (inactive). In addition, the GI50 in test [7] is 18.9 µM (inactive); in test [8], 22.5 µM (inactive); in [9], 13.4 µM (inactive); in [10], 26.6 µM (inactive); in [11], 41.8 µM (inactive); in test [12], 15.6 µM (inactive). Further, the GI50 in [13] is 31 µM (inactive); in test [14] it was 23.4 µM (inactive); in test [15] it was 15.3 µM (inactive).
For the compound `O=C(O)C(CO)NC(=O)C1C(C(=O)O)C(c2ccccc2[N+](=O)[O-])C=C(c2ccco2)N1c1ccncc1` (stereo not drawn), the GI50 in test [1] is 4.49 µM (inactive); in [2], 3.08 µM (inactive); in test [17], 3.33 µM (inactive); in [16], 1.64 µM (inactive); in test [3], 16.3 µM (inactive); in [5], 9.55 µM (inactive). Also, the GI50 was 0.9 µM (active) in [6]; 3.68 µM (inactive) in test [7]; 10.2 µM (inactive) in [18]; 9.35 µM (inactive) in [19]; 5.53 µM (inactive) in [8]; 1.99 µM (inactive) in [9]. The GI50 was 1.81 µM (inactive) in test [10]; 4.62 µM (inactive) in test [11]; 1.58 µM (inactive) in [12]; 8.85 µM (inactive) in [13]; 5.16 µM (inactive) in test [20]; 2.04 µM (inactive) in test [14]. Besides, the GI50 in test [15] is 1.57 µM (inactive).
Consider `CCC(C)n1c(C)nc2c1C(=O)c1ccccc1C2=O` (stereo not drawn), for which the GI50 in test [1] was 26.9 µM (inactive); in test [2], 61.2 µM (inactive); in test [16], 26.7 µM (inactive); in test [3], > 100 µM (inactive); in test [4] it was 43.7 µM (inactive); in test [5] it was 75.7 µM (inactive). Moreover, the GI50 in test [6] was 47.5 µM (inactive); in [7], 37.8 µM (inactive); in test [8], 47.1 µM (inactive); in test [9], 34 µM (inactive); in test [10], 40.4 µM (inactive); in test [11], 43.5 µM (inactive). The GI50 in [14] was 45.1 µM (inactive); in [15], 23.1 µM (inactive).
For the compound `CC1=C(Cl)C=CP(=O)(OC(C)C)C1` (stereo not drawn), the GI50 in [1], in [2], in test [16], in test [3], in test [4] and in test [5] was > 100 µM (inactive) throughout. For the same compound, the GI50 was 46.2 µM (inactive) in [6]; > 100 µM (inactive) in test [7]; 36.9 µM (inactive) in test [8]; 47.4 µM (inactive) in test [9]; > 100 µM (inactive) in test [10]; > 100 µM (inactive) in test [11]. For the same compound, the GI50 in [12] is 50.2 µM (inactive); in [14], > 100 µM (inactive).
For `CCOc1cc(/C=C/C=C/c2ccc(N(C)C)cc2)[s+]c2ccccc12`, the GI50 was 11.8 µM (inactive) in test [1]; 19 µM (inactive) in [2]; 24.2 µM (inactive) in test [16]; 20.4 µM (inactive) in test [3]; 71 µM (inactive) in test [4]; 27.2 µM (inactive) in test [5]. Further, the GI50 in [8] was 25.6 µM (inactive); in [9] it was 4.85 µM (inactive); in test [10], 35.8 µM (inactive); in test [11], 34.9 µM (inactive); in [12] it was 3.2 µM (inactive); in test [13], 23.7 µM (inactive). Further, the GI50 in [14] is 21.6 µM (inactive); in test [15], 15.4 µM (inactive).
Regarding `CC(=O)Nc1ccc(/C=C/c2ccc(NC(=O)Nc3ccc(/C=C/c4ccc(NC(C)=O)cc4S(=O)(=O)O)c(S(=O)(=O)O)c3)cc2S(=O)(=O)O)c(S(=O)(=O)O)c1`, the GI50 in test [1] was > 100 µM (inactive); in test [16], > 100 µM (inactive); in [3], > 100 µM (inactive); in test [4], 77.8 µM (inactive); in test [5], > 100 µM (inactive); in [7], > 100 µM (inactive). For the same compound, the GI50 in [8], in [9], in test [10], in test [11], in test [12] and in test [14] was > 100 µM (inactive) throughout. Besides, the GI50 in [15] is > 94.2 µM (inactive).
With `CC(C(=O)OCc1ccccc1)N(Cc1ccccc1)Cc1ccccc1` (stereo not drawn), the GI50 in [1] is 43.1 µM (inactive); in test [16], 23.1 µM (inactive); in test [3] it was 29.6 µM (inactive); in test [4] it was > 100 µM (inactive); in test [5], > 100 µM (inactive); in test [6], 31 µM (inactive). In addition, the GI50 in test [7] is 75.3 µM (inactive); in test [8], > 100 µM (inactive); in test [9] it was 77.8 µM (inactive); in test [10], 46.8 µM (inactive); in [11] it was > 100 µM (inactive); in [12] it was 35.9 µM (inactive). For the same compound, the GI50 in test [13] and in test [14] was > 100 µM (inactive) in each case.
